Results published in patent US6803379B2, “PHARMACOLOGICAL AGENTS AND METHODS OF TREATMENT THAT INACTIVATE PATHOGENIC PROKARYOTIC AND EUKARYOTIC CELLS AND VIRUSES BY ATTACKING HIGHLY CONSERVED DOMAINS IN STRUCTURAL METALLOPROTEIN AND METALLOENZYME TARGETS” (priority 2002, dated 2004).
Counter-ions that a name gives are not always drawn. Like-named read-outs stand apart in the source and are kept apart here.

How the values were obtained:
[1] = test system: cancer cells in tissue culture; assay: Activity against cancer cells in tissue culture relative to 2-thiophenecarboxylic acid
[2] = test system: virally infected cells; assay: Activity against virally infected cells relative to 2-thiophenecarboxylic acid; format: cell-based
[3] = test system: CHO cells; assay: Growth of CHO cells (cell counts at 24, 48 and 72 h); conditions: for inhibition at 3000 µM / inhibition at 10000 µM / inhibition at 1000 µM: Cricetulus griseus, CHO, read-out: growth inhibition; for time within which growth was strongly inhibited: 1 mM and 3 mM
Experimental: Cells were plated at 1.5×10^5 cells/60-mm dish; 24 hours later, the medium was removed, and new media with or without 0.05 to 10 mM final concentrations of 2-Furoic acid were added. Cell counts were determined at 24, 48 and 72 h after the addition of 2-Furoic acid; each point is the average of triplicate measurements from 3 cultures.

[4] = test system: CHO cells
[5] = LD-50; conditions: in vivo
[6] = test system: many different cancer cell lines; assay: Cytotoxicity in cancer cell lines in vitro; conditions: uM concentrations
[7] = test system: human breast adenocarcinoma MDA-468 cell; assay: Growth and viability of breast adenocarcinoma MDA-468 cells; format: cell-based; conditions: 50 μM
Experimental: These floating cells were not viable. Within 48 h of treatment there was greater than 90% decrease in cell number.

[8] = target: LTA4 hydrolase (Homo sapiens, UniProt P09960); conditions: cited from earlier work
[9] = test system: Human Foreskin (HF) cells infected with HSV-2-strain G; format: cell-based

Sequence of LTA4 hydrolase (P09960 whole entry): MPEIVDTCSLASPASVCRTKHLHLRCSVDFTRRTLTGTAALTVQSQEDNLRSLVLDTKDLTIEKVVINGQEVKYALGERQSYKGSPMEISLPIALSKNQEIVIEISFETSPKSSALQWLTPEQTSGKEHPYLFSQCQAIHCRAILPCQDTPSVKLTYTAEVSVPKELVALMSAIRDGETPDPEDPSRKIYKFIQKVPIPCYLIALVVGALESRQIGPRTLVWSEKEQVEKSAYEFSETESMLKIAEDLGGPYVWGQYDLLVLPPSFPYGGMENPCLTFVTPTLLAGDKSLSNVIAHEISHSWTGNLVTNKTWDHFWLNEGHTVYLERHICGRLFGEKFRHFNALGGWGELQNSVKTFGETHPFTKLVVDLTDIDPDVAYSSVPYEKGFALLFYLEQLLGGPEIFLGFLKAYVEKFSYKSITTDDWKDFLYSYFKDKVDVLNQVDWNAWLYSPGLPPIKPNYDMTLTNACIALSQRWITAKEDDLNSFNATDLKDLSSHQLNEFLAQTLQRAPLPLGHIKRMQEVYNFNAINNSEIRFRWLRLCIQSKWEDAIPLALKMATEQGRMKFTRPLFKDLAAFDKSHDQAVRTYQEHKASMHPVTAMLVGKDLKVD

SMILES: CCCCc1csc(C(=O)NN)c1Cl
- times more active than 2-thiophenecarboxylic acid [1]: 7-10 times
- times more active than 2-thiophenecarboxylic acid [2]: 7-10 times

SMILES: O=C(O)c1ccco1 [2-Furoic acid]
- time within which growth was inhibited in a dose-dependent fashion ([3]; CHO cells, 3 to 10 mM): ≤ 24 h
- inhibition at 3000 µM ([3]; 72 h): ~20%
- inhibition at 10000 µM ([3]; 72 h): ~40%
- toxic effects on the cells [4]: no significant toxic effects

SMILES: NNC(=O)c1cccs1 [2-TCAH, 2-thiophenecarboxylic acid hydrazide]
- time within which growth was inhibited in a dose-dependent fashion ([3]; CHO cells): ≤ 24 h
- inhibition at 1000 µM ([3]; 72 h): ~65%
- inhibition at 10000 µM ([3]; 72 h): ~90%
- toxic effects on the cells [4]: significant toxic effects

SMILES: O=C(O)c1cccs1 [2-TH acid, 2-thiophenecarboxylic acid]
- LD-50 [5]: 30 grams/70 Kg

SMILES: O=C(O)c1oc(Cl)c(Cl)c1Cl [3,4,5-TFA, 3,4,5-Trichloro-2-Furoic acid]
- time within which growth was strongly inhibited ([3]; CHO cells): ≤ 12 h
- inhibition at 1000 µM [3]: > 80%
- inhibition at 3000 µM [3]: > 99%
- cytotoxicity and cell death, share of CHO cells ([4]; Chinese hamster, 3 mM): greater than 99%

SMILES: NN.O=C(O)c1sc(Cl)c(Cl)c1Cl [3,4,5-TTAH]
- growth of CHO cells ([3]; 500 uM): strongly inhibited
- cytotoxicity and cell death, share of CHO cells ([4]; 500 uM, 24-72 hours exposure): greater than 95%
- detached cells destroyed by the agent ([4]; 500 uM, 72 h, trypan blue dye exclusion test): > 99.9%

SMILES: O=C(O)c1sc(Cl)c(Cl)c1Cl [3,4,5-TTA]
- time within which growth was strongly inhibited ([3]; CHO cells): ≤ 6 h
- inhibition at 1000 µM [3]: > 98%
- inhibition at 3000 µM [3]: 100%

SMILES: CCCCc1csc(C(=O)NN)c1 [4-B-2-TAH, 4-butyl-2-Thiophenecarboxylic Acid Hydrazide]
- cytotoxic effects [6]: pronounced cytotoxic effects
- cell number ([7]; after 12 hours of treatment): no further increase in cell number
- decrease in cell number ([7]; within 48 h of treatment): greater than 90%

SMILES: C[C@H](CS)C(=O)N1CCC[C@H]1C(=O)O [Captopril]
- inhibition of LTA4 hydrolase, concentration range [8]: low uM range

SMILES: c1ccsc1 [Thiophene, reference compound]
- effect on cell growth ([3]; CHO cells, analog tested at 0.05 to 10 mM, up to 72 h): no significant effect on cell growth

SMILES: O=C(O)c1ccccn1 [picolinic acid]
- effect on infected cells [9]: cause apoptosis of HF infected cells
